The values below are quoted from earlier work in patent publication US11661525B2, “Inkjet ink and inkjet recording apparatus” (KYOCERA Document Solutions Inc., priority 2020, dated 2023).

Setting [1] is: literature values of the octanol/water partition coefficient of representative water-soluble organic solvents.

Molecules are shown by their SMILES. Where two headings read alike, the source gives them in different places.

Consider `OCCOCCOCCO` [Triethylene glycol], for which the LogP (usually the decadic logarithm of the partition coefficient of the neutral form, usually between octanol and water) under setting [1] is on record as −1.98. Take `CCOCCOCCO` [Diethylene glycol monoethyl ether]: the LogP under setting [1] is −0.15.

In the case of `CCCCCCC(O)CO` (centres unmarked) [1,2-Octanediol], the LogP under setting [1] is reported as 0.66.

Consider `CC(CCO)CCO` [3-Methyl-1,5-pentanediol], for which the LogP is reported as 0.07 under setting [1]; 0.01 (octanol/water partition coefficient of the water-soluble organic solvent used in the inks (Tables 6 and 8)).
